Columns and labels:
Alternaria = assay: Test Method A: fungus formation on treated paint/plaster discs, Alternaria; format: cell-based
Procedure: (§1) The biological effectiveness of a product according to Example 1 was tested both in an aqueous acrylate paint and in an aqueous plaster dispersion as follows:
(§2) To 50 grams of a usual acrylic paint (for composition see Table I) and of a plaster (for composition see Table II) composition to be tested, the fungicidal compound of Example 1 was added in different concentrations. After extensive stirring, the samples were coated on a sheet of pasteboard and dried for 24 hours at room temperature and for an additional 24 hours at 40° C. These paper samples were then subjected for 72 hours to a water sprayout test whereby 1 liter of water per minute was flushed over the paper supports. After drying for 24 hours at room temperature and for 24 hours at 40° C., the test samples were irradiated for 24 hours with ultraviolet light. Test discs having a diameter of 50 mm were cut from the pasteboard and sterilized with ethylene oxide.
(§3) Sabouraud-plates were seeded with a 0.2 ml suspension of either Aspergillus niger or Alternaria containing about 10^7 germs per ml. The test discs were put onto the plates and incubated at a temperature of 25° to 27° C. for a period of 3 weeks. After a period of 1 or 2 or 3 weeks, respectively, the contamination was rated as follows:
(§4) 1=very small fungus formation (0-5% of the entire surface)
(§5) 2=weak fungus formation (5-25% of the entire surface)
(§6) 3=medium fungus formation (25 to 50% of the entire surface)
(§7) 4=strong fungus formation (50-99% of the entire surface)
(§8) 5=no inhibition of fungus formation.
(§9) A known tetradecane-sulfonic acid adduct of 2-methoxycarbonylaminobenzimidazole (BCM), CARBENDASULF (Hoechst AG, Frankfurt/Main, Germany; prepared according to Example 1 of U.S. Pat. No. 4,046,906), was used for comparison.

Aspergillus niger = assay: Test Method A: fungus formation on treated paint/plaster discs, Aspergillus niger; format: cell-based
Procedure: as §1, §2, §3, §4, §5, §6, §7, §8, §9

[1] = acrylic dispersion paint, conc. 0.01%, 1 week
[2] = acrylic dispersion paint, conc. 0.01%, 2 weeks
[3] = acrylic dispersion paint, conc. 0.01%, 3 weeks
[4] = acrylic dispersion paint, conc. 0.02%, 1 week
[5] = acrylic dispersion paint, conc. 0.02%, 2 weeks
[6] = acrylic dispersion paint, conc. 0.02%, 3 weeks
[7] = acrylic dispersion paint, conc. 0.05%, 1 week
[8] = acrylic dispersion paint, conc. 0.05%, 2 weeks
[9] = acrylic dispersion paint, conc. 0.05%, 3 weeks

## COC(=O)Nc1nc2ccccc2[nH]1 [CARBENDASULF, tetradecane-sulfonic acid adduct of 2-methoxycarbonylaminobenzimidazole (BCM)]
Alternaria; [1]
  contamination rating (fungus formation): 3 (medium fungus formation (25 to 50% of the entire surface))
Alternaria; [2]
  contamination rating (fungus formation): 3 (medium fungus formation (25 to 50% of the entire surface))
Alternaria; [3]
  contamination rating (fungus formation): 4 (strong fungus formation (50-99% of the entire surface))
Alternaria; [4]
  contamination rating (fungus formation): 2 (weak fungus formation (5-25% of the entire surface))
Alternaria; [5]
  contamination rating (fungus formation): 2 (weak fungus formation (5-25% of the entire surface))
Alternaria; [6]
  contamination rating (fungus formation): 3 (medium fungus formation (25 to 50% of the entire surface))
Alternaria; [7]
  contamination rating (fungus formation): 1 (very small fungus formation (0-5% of the entire surface))
Alternaria; [8]
  contamination rating (fungus formation): 2 (weak fungus formation (5-25% of the entire surface))
Alternaria; [9]
  contamination rating (fungus formation): 2 (weak fungus formation (5-25% of the entire surface))
Alternaria; plaster, conc. 0.01%, 1 week
  contamination rating (fungus formation): 2 (weak fungus formation (5-25% of the entire surface))
Alternaria; plaster, conc. 0.01%, 2 weeks
  contamination rating (fungus formation): 3 (medium fungus formation (25 to 50% of the entire surface))
Alternaria; plaster, conc. 0.01%, 3 weeks
  contamination rating (fungus formation): 4 (strong fungus formation (50-99% of the entire surface))
Alternaria; plaster, conc. 0.02%, 1 week
  contamination rating (fungus formation): 1 (very small fungus formation (0-5% of the entire surface))
Alternaria; plaster, conc. 0.02%, 2 weeks
  contamination rating (fungus formation): 2 (weak fungus formation (5-25% of the entire surface))
Alternaria; plaster, conc. 0.02%, 3 weeks
  contamination rating (fungus formation): 4 (strong fungus formation (50-99% of the entire surface))
Alternaria; plaster, conc. 0.05%, 1 week
  contamination rating (fungus formation): 1 (very small fungus formation (0-5% of the entire surface))
Alternaria; plaster, conc. 0.05%, 2 weeks
  contamination rating (fungus formation): 2 (weak fungus formation (5-25% of the entire surface))
Alternaria; plaster, conc. 0.05%, 3 weeks
  contamination rating (fungus formation): 2 (weak fungus formation (5-25% of the entire surface))
Aspergillus niger; [1]
  contamination rating (fungus formation): 3 (medium fungus formation (25 to 50% of the entire surface))
Aspergillus niger; [2]
  contamination rating (fungus formation): 3 (medium fungus formation (25 to 50% of the entire surface))
Aspergillus niger; [3]
  contamination rating (fungus formation): 4 (strong fungus formation (50-99% of the entire surface))
Aspergillus niger; [4]
  contamination rating (fungus formation): 2 (weak fungus formation (5-25% of the entire surface))
Aspergillus niger; [5]
  contamination rating (fungus formation): 2 (weak fungus formation (5-25% of the entire surface))
Aspergillus niger; [6]
  contamination rating (fungus formation): 3 (medium fungus formation (25 to 50% of the entire surface))
Aspergillus niger; [7]
  contamination rating (fungus formation): 1 (very small fungus formation (0-5% of the entire surface))
Aspergillus niger; [8]
  contamination rating (fungus formation): 1 (very small fungus formation (0-5% of the entire surface))
Aspergillus niger; [9]
  contamination rating (fungus formation): 2 (weak fungus formation (5-25% of the entire surface))
Aspergillus niger; plaster, conc. 0.01%, 1 week
  contamination rating (fungus formation): 2 (weak fungus formation (5-25% of the entire surface))
Aspergillus niger; plaster, conc. 0.01%, 2 weeks
  contamination rating (fungus formation): 3 (medium fungus formation (25 to 50% of the entire surface))
Aspergillus niger; plaster, conc. 0.01%, 3 weeks
  contamination rating (fungus formation): 3 (medium fungus formation (25 to 50% of the entire surface))
Aspergillus niger; plaster, conc. 0.02%, 1 week
  contamination rating (fungus formation): 1 (very small fungus formation (0-5% of the entire surface))
Aspergillus niger; plaster, conc. 0.02%, 2 weeks
  contamination rating (fungus formation): 2 (weak fungus formation (5-25% of the entire surface))
Aspergillus niger; plaster, conc. 0.02%, 3 weeks
  contamination rating (fungus formation): 3 (medium fungus formation (25 to 50% of the entire surface))
Aspergillus niger; plaster, conc. 0.05%, 1 week
  contamination rating (fungus formation): 1 (very small fungus formation (0-5% of the entire surface))
Aspergillus niger; plaster, conc. 0.05%, 2 weeks
  contamination rating (fungus formation): 1 (very small fungus formation (0-5% of the entire surface))
Aspergillus niger; plaster, conc. 0.05%, 3 weeks
  contamination rating (fungus formation): 2 (weak fungus formation (5-25% of the entire surface))
